Where “and” joins values, the source holds several entries; their conditions need not be identical. Equal values may be shown once. Read-outs that look alike come from different tables or passages of the source.
Tests used:
Type in all cases: cell-based
HIV-1 in MT-4 cells [1] = assay: Viable cell counts, cytolytic effect of HIV-1 on MT-4 cells; conditions: for viability at 2 µg/mL: Human immunodeficiency virus 1, MT4, 144 h
Procedure: (§1) In vitro testing was conducted on several of the compounds of this invention to determine their inhibitory properties. The concentrations reported are μg/ml in the incubation media which affect the susceptibility of a continuous line of T-cells developed at the Lady Davis Institute for Medical Research (Montreal) by Dr. Mark A. Wainberg toward infection by HIV-1 following a protocol similar to that of H. Mitsuya and S. Broder, “Inhibition of the in vitro infectivity and cytopathic effect of human T-lymphotropic virus type III/lymphadenopathy-associated virus (HTLV-III/LAV) by 2′3′-dideoxynucleosides”, Proc. Natl. Acad. Sci. USA, 83, pp. 1911–15 (1986). Protection of the cell line from infection was monitored by staining with monoclonal antibodies against viral proteins in the standard manner (Table 1). In all experiments, comparisons were made with the drug AZT as the control. In order to confirm the results, the drug effects were monitored by measuring reverse transcriptase (RT) activity in the U-937 line of human monocytic cells as assayed in the usual manner with tritiated thymidine triphosphate (TTP) (Table 2). The drug effects on cell viability as measured by the well-know cytolytic effects of HIV-1 on the MT-4 cell line was evaluated in the accepted manner (Table 1).

HIV-1 in MT-4 cells [2] = assay: P-24 immunofluorescence in MT-4 cells (staining with monoclonal antibodies against viral proteins); conditions: 2 μg/ml
Procedure: as §1

HIV-1 in MT-4 cells [3] = assay: Reverse transcriptase assay in MT-4 cells; conditions: 2 μg/ml
HIV-1 in H-9 cells [4] = assay: Reverse transcriptase assay, HIV-1 production in H-9 cells (Table 2); conditions: 2 μg/ml
HIV-1 in H-9 cells [5] = assay: RT activity, HIV-1 production in H-9 cells (Table 3)
[6] = MT-4 cells, HIV-1, 6 days in culture, 2 μg/ml of compound, read-out: Cell Viability %
[7] = MT-4 cells, HIV-1, 6 days in culture, 2 μg/ml of compound
[8] = 7 days in culture (row between 14 and 21)

Nc1ccn(C2C[S+]([O-])C(CO)O2)c(=O)n1 (single isomer, unassigned) [cis-XII (b), Cis-2-hydroxymethyl-5-(cytosin-1′-yl)-3-oxo-1,3-oxathiolane]
viability at 2 µg/mL (HIV-1 in MT-4 cells [1]; [6]): 14%

O=c1ccn(C2CSC(CO)O2)c(=O)[nH]1 (stereo not drawn) [cis-XVIII, Cis-2-hydroxymethyl-5-(uracil-N-1′-yl)-1,3-oxathiolane]
viability at 2 µg/mL (HIV-1 in MT-4 cells [1]; [6]): 14%

O=c1[nH]cnc2c1ncn2C1CSC(CO)O1 (stereo not drawn) [cis-LVI, Cis-2-hydroxymethyl-5-(6′-hydroxypurin-N-9′-yl)-1,3-oxathiolane]
viability at 2 µg/mL (HIV-1 in MT-4 cells [1]; [6]): 11%

Nc1ccn(C2CSC(CO)O2)c(=O)n1 (stereo not drawn) [trans-XI, trans-2-hydroxymethyl-5-(cytosin-1′-yl)-1,3-oxathiolane]
Cell Viability % (HIV-1 in MT-4 cells [1]; [7]): 24%

Cc1cn(C2CC(N=[N+]=[N-])C(CO)O2)c(=O)[nH]c1=O (centres unmarked) [AZT, 3′-azido-2′,3′-dideoxythymidine, reference compound]
viability at 2 µg/mL (HIV-1 in MT-4 cells [1]; read-out: Cell Viability %, MT-4 cells, HIV-1, 6 days in culture, 2 μg/ml of compound): 88.6%
% Immunofluorescent Cells (P-24) (HIV-1 in MT-4 cells [2]; 3 days in culture): 1.0%
% Immunofluorescent Cells (P-24) (HIV-1 in MT-4 cells [2]; 6 days in culture): 1.0%
RT Activity (CPM × 1000)/ml (HIV-1 in MT-4 cells [3]; 3 days in culture): 1.564 (CPM × 1000)/ml
RT Activity (CPM × 1000)/ml (HIV-1 in MT-4 cells [3]; 6 days in culture): 1.748 (CPM × 1000)/ml
RT Activity (CPM × 1000)/ml (HIV-1 in H-9 cells [4]; 5 days in culture): 3.346 (CPM × 1000)/ml
RT Activity (CPM × 1000)/ml (HIV-1 in H-9 cells [4]; [8]): 2.997 (CPM × 1000)/ml
RT Activity (CPM × 1000)/ml (HIV-1 in H-9 cells [4]; 8 days in culture): 3.414 (CPM × 1000)/ml
RT Activity (CPM × 1000)/ml (HIV-1 in H-9 cells [4]; 11 days in culture): 2.918 (CPM × 1000)/ml
RT Activity (CPM × 1000)/ml (HIV-1 in H-9 cells [4]; 14 days in culture): 8.320 (CPM × 1000)/ml
RT Activity (CPM × 1000)/ml (HIV-1 in H-9 cells [4]; 21 days in culture): 3.111 (CPM × 1000)/ml
RT Activity (CPM × 1000)/ml (HIV-1 in H-9 cells [4]; 25 days in culture): 15.88 (CPM × 1000)/ml
RT Activity (CPM × 1000)/ml (HIV-1 in H-9 cells [4]; 29 days in culture): 32.08 (CPM × 1000)/ml
RT Activity (CPM × 1000)/ml (HIV-1 in H-9 cells [4]; 33 days in culture): 612.2 (CPM × 1000)/ml
RT Activity (CPM × 1000)/ml (HIV-1 in H-9 cells [4]; 37 days in culture): 878.2 (CPM × 1000)/ml
RT Activity (CPM × 1000)/ml (HIV-1 in H-9 cells [4]; 41 days in culture): 994.0 (CPM × 1000)/ml
RT Activity (CPM × 1000)/ml (HIV-1 in H-9 cells [4]; 45 days in culture): 32.91 (CPM × 1000)/ml
RT activity (cpm) after 8 days (HIV-1 in H-9 cells [5]; inhibitor 20 μM): 633 cpm and 587 cpm
RT activity (cpm) after 26 days (HIV-1 in H-9 cells [5]; inhibitor 20 μM): 821 cpm and 679 cpm

CN(C)C=Nc1ccn(C2CSC(CO)O2)c(=O)n1 (stereo not drawn) [cis-LIII, Cis-2-hydroxymethyl-5-(N-dimethylaminomethylenecytosin-1′-yl)-1,3-oxathiolane]
viability at 2 µg/mL (HIV-1 in MT-4 cells [1]; [6]): 18%

Nc1ccn(C2CSC(CO)O2)c(=O)n1 (stereo not drawn) [cis-XI, Cis-2-hydroxymethyl-5-(cytosin-1′-yl)-1,3-oxathiolane]
Cell Viability % (HIV-1 in MT-4 cells [1]; [7]): 87.4%
% Immunofluorescent Cells (P-24) (HIV-1 in MT-4 cells [2]; 3 days in culture): 1.0%
% Immunofluorescent Cells (P-24) (HIV-1 in MT-4 cells [2]; 6 days in culture): 7.6%
RT Activity (CPM × 1000)/ml (HIV-1 in MT-4 cells [3]; 3 days in culture): 2.381 (CPM × 1000)/ml
RT Activity (CPM × 1000)/ml (HIV-1 in MT-4 cells [3]; 6 days in culture): 2.301 (CPM × 1000)/ml
RT Activity (CPM × 1000)/ml (HIV-1 in H-9 cells [4]; 5 days in culture): 3.077 (CPM × 1000)/ml
RT Activity (CPM × 1000)/ml (HIV-1 in H-9 cells [4]; [8]): 2.399 (CPM × 1000)/ml
RT Activity (CPM × 1000)/ml (HIV-1 in H-9 cells [4]; 8 days in culture): 5.853 (CPM × 1000)/ml
RT Activity (CPM × 1000)/ml (HIV-1 in H-9 cells [4]; 11 days in culture): 3.560 (CPM × 1000)/ml
RT Activity (CPM × 1000)/ml (HIV-1 in H-9 cells [4]; 14 days in culture): 2.872 (CPM × 1000)/ml
RT Activity (CPM × 1000)/ml (HIV-1 in H-9 cells [4]; 21 days in culture): 2.907 (CPM × 1000)/ml
RT Activity (CPM × 1000)/ml (HIV-1 in H-9 cells [4]; 25 days in culture): 4.020 (CPM × 1000)/ml
RT Activity (CPM × 1000)/ml (HIV-1 in H-9 cells [4]; 29 days in culture): 3.756 (CPM × 1000)/ml
RT Activity (CPM × 1000)/ml (HIV-1 in H-9 cells [4]; 33 days in culture): 3.803 (CPM × 1000)/ml
RT Activity (CPM × 1000)/ml (HIV-1 in H-9 cells [4]; 37 days in culture): 4.193 (CPM × 1000)/ml
RT Activity (CPM × 1000)/ml (HIV-1 in H-9 cells [4]; 41 days in culture): 4.515 (CPM × 1000)/ml
RT Activity (CPM × 1000)/ml (HIV-1 in H-9 cells [4]; 45 days in culture): 3.441 (CPM × 1000)/ml

Nc1ccn(C2COC(CO)O2)c(=O)n1 (stereo not drawn) [trans-(XXXVI), trans-2-hydromethyl-4-(cytosin-1′-yl)-1,3-dioxolane]
RT activity (cpm) after 8 days (HIV-1 in H-9 cells [5]; inhibitor 10 μM): 4,608 cpm
RT activity (cpm) after 12 days (HIV-1 in H-9 cells [5]; inhibitor 10 μM): 83,462 cpm
RT activity (cpm) after 26 days (HIV-1 in H-9 cells [5]; inhibitor 10 μM): 312,478 cpm
RT activity (cpm) after 8 days (HIV-1 in H-9 cells [5]; inhibitor 50 μM): 1,319 cpm
RT activity (cpm) after 12 days (HIV-1 in H-9 cells [5]; inhibitor 50 μM): 758 cpm
RT activity (cpm) after 26 days (HIV-1 in H-9 cells [5]; inhibitor 50 μM): 1,732 cpm
